Source: patent US20240318142A1, “METHOD FOR PRODUCING RENAL INTERSTITIAL PROGENITOR CELLS, ERYTHROPOIETIN-PRODUCING CELLS, AND METHOD FOR PRODUCING RENIN-PRODUCING CELLS” (KYOTO UNIVERSITY, priority 2021, published 2024)

Key:
[1] = system: hiPSC-derived IPCs; experiment: qRT-PCR of EPO after further differentiation induction from IPCs (renal EPO-producing cells); type: cell-based, human; conditions: for effect on the SAG-induced EPO up-regulation: modulator together with SAG 500 nM, CHIR99021, RA, and A83-01; for effect on the SAG-induced EPO up-regulation / EPO expression: FIG. 15; for EPO expression compared to the combination of SB431542 and SAG: combination of A83-01 and SAG in CFR medium, FIG. 10; for EPO expression: SHH signal modulators under induction conditions using CHIR99021, RA, and A83-01, Days 11 to 14; for expression of EPO: combination of SB431542 and SAG (500 nM), 5% O2, FG-4592 and RA present, FIG. 9
Description: (§1) FIG. 9 is a diagram illustrating results of qRT-PCR analysis of EPO and renin carried out on Days 11 to 14, that is, after obtaining renal interstitial progenitor cells, for comparison of the effects of combinations of candidate differentiation induction factors for renal EPO-producing cells or renin-producing cells. The SAG concentration was 500 nM, and the concentrations of SB and CHIR are expressed in the unit of μM.
(§2) FIG. 10 is a diagram illustrating results of qRT-PCR analysis of EPO and renin on Days 11 to 14, that is, after obtaining renal interstitial progenitor cells, for comparison of the effects of combinations of various candidate differentiation induction factors. The SAG concentration was 500 nM; the concentrations of SB and A83 are expressed in the unit of μM; LDN is expressed in the unit of nM; and TGFβ1, BMP7, and activin (ACT) are expressed in the unit of ng/mL.
FIG. 15 is a diagram illustrating results of qRT-PCR analysis of EPO carried out on Days 11 to 14, that is, after obtaining renal interstitial progenitor cells, for comparison of the effects of various Sonic Hedgehog (SHH) signal modulators under induction conditions using CHIR99021, RA, and A83-01. So, Vi, Pu, Sa, and Ga represent sonidegib, vismodegib, purmophamine, SANT-1, and GANT61, respectively, and their concentrations are expressed in the unit of μM. The concentration of SAG was 500 nM, and the concentration of SHH was 100 ng/mL.
(§3) First, using the IPCs on Day 11, culture was performed under 5% O2 hypoxic conditions in the presence of FG-4592 (N-[(4-hydroxy-1-methyl-7-phenoxy-3-isoquinolinyl)carbonyl]-glycine) and RA with addition of various factors. By measuring the expression of EPO and renin, screening for induction factors for renin-producing cells and renal EPO-producing cells was carried out.
Subsequently, the effects of various SHH signal modulators in a system for differentiation induction from IPCs to EPO-producing cells were investigated (FIG. 15). Several SMO antagonists (sonidegib, vismodegib, and SANT-1) and agonists (SAG and purmophamine), a GLI1 inhibitor (GANT61), and human SHH protein were tested.

[2] = system: PPS cells obtained by differentiation induction from human iPS cells; experiment: Induction of FOXD1-positive renal interstitial progenitor cells (IPC) from PPS cells, flow cytometric analysis (FOXD1 and OSR1) on Day 11; type: cell-based; conditions: for induction of FOXD1-positive cells: 5 days of treatment (Days 6 to 11) with the combination CHIR99021 1 μM, SB431542 10 μM and RA 100 nM, FIG. 3; for induction efficiency for OSR1-positive FOXD1-positive cells: addition of IL-1β (10 ng/mL) and SAG (500 nM) together on Days 6 to 8, FIG. 6
Description: FIG. 3 is a diagram illustrating results of flow cytometric analysis (FOXD1 and OSR1), carried out on Day 11, of cells that were treated with various combinations of factors during the differentiation induction period of Days 6 to 11 (the period corresponding to “Screening” in FIG. 1). The following concentrations were employed: 1 μM CHIR99021 (CHIR), 10 μM SB431542 (SB), 100 nM retinoic acid (RA), 200 ng/mL FGF9, and 25 ng/mL Noggin.
FIG. 5 is a diagram illustrating results of flow cytometric analysis (FOXD1 and OSR1), carried out on Day 11, of cells that were treated or not treated with Smoothened Agonist (SAG) (concentration, 500 nM) during the differentiation induction period of Days 6 to 8. ** indicates p<0.01 (Student's t-test), and NS indicates “no significant difference”.
FIG. 6 is a diagram illustrating results of flow cytometric analysis (FOXD1 and OSR1), carried out on Day 11, of cells that were treated with various factors during the differentiation induction period of Days 6 to 8. The following concentrations were employed: 1 μM CHIR, 10% Wnt3a, 200 ng/mLRSPO1 (R-Spondin-1), 500 nM SAG, 10 ng/mL IL-1β, 50 ng/mL Estradiol, and 10 ng/mL TGFβ1.
Human iPS cells (hiPSCs) (17K6:OSR1-GFP/FOXD1-tdTomato double knock-in hiPSCs) were first subjected to enzyme treatment for 5 minutes using a 1:1 mixture of TrypLE Select Enzyme (Thermo Fisher Scientific) and 0.5 mM EDTA/PBS, and then washed with PBS(−). Thereafter, the cells were detached using a cell scraper, and then dissociated into single cells by gentle pipetting. One day before the start of differentiation, the cells were plated into a 24-well plate (CORNING) at a density of 1.3×10^4 cells/cm^2 together with 0.5 mL of Stem Fit AK02N (Ajinomoto Healthy Supply Co., Inc.) supplemented with 10 μM Y-27632 and 2.4 μL/mL iMatrix-511 (Matrixome). Twenty-four hours later (Day 0), 5 μM CHIR99021 (Wako), 10 nM RA (Sigma), 1 ng/mL BMP4 (Peprotech), and 100 ng/mL bFGF (Wako) were added to a serum-free differentiation medium comprising DMEM/F12 Glutamax (Thermo Fisher Scientific), B27 supplement minus vitamin A (Thermo Fisher Scientific), and 0.5× penicillin/streptomycin (hereinafter referred to as basal medium), and then culture was started. Twenty-four hours thereafter (Day 1), culture was performed with a basal medium supplemented with 5 μM CHIR99021, 100 ng/mL bFGF, and 1 ng/mL BMP7 (R&D Systems). On Day 2, the medium was switched to a basal medium supplemented with 5 μM CHIR99021, 1 ng/mL BMP7, and 10 μM A83-01 (Wako). On Day 3, the medium was switched to a basal medium supplemented with 5 μM CHIR99021, 30 ng/mL bFGF, 10 ng/mL activin A (R&D Systems), and 30 μM Y-27632 (Wako). On Day 4, the cells were washed with PBS(−), treated with Accumax (Innovative Cell Technologies), and then dissociated into single cells by gentle pipetting, followed by plating into a 24-well plate (CORNING) at a density of 1.05×10^5 cells/cm^2 (2D culture) or plating into a 96-well low-cell-adhesive plate (Thermo Fisher Scientific) at a density of 2.0×10^4 cells/cm^2 (3D culture). Culture was performed for 48 hours using a basal medium supplemented with 5 μM CHIR99021, 30 ng/mL bFGF, 10 ng/mL activin A, and 30 μM Y-27632 (in addition, 1.2 μL/well iMatrix-511 or a laminin-E8 fragment library in the case of 2D culture). By this, HOXC10- and CITED1-positive PPS cells were induced.
For the PPS cells on Day 6 of the culture protocol in FIG. 1, several differentiation induction conditions were tested by combining various factors. […]

[3] = system: hiPSC-derived IPCs; experiment: qRT-PCR of renin and mesangial/JG cell markers after further differentiation induction from IPCs (renin-producing cells); type: cell-based, human
Description: as §1, §2
FIG. 11 is a diagram illustrating results of qRT-PCR analysis of renin on Days 11 to 14, that is, after obtaining renal interstitial progenitor cells, for comparison of the effects of various factors. In the presence of CHIR99021, RA, and FG-4592 (CFR), the effects of BMP4, BMP5, and BMP7 (10 ng/mL or 100 ng/mL) were investigated under conditions with or without treatment by SB431542 (1 μM). SB is expressed in the unit of […], and TGFβ1 and ACT are expressed in the unit of ng/mL.
FIG. 12 is a diagram illustrating results of qRT-PCR analysis of marker expression for the mesangial cell lineage (GATA3, renin, and GJA5) and IPCs (FOXD1) at Hour 0 and Hour 96 after treatment with CFR+BMP7+SB. iPSC represents the control.
FIG. 13 is a diagram illustrating results of qRT-PCR analysis of cells that were subjected to treatment under hypoxic (CFR+B7+SB in 5% O2) or normal oxygen (CFR+B7+SB minus FG-4592 in 20% O2) conditions on Days 11 to 15, that is, after obtaining renal interstitial progenitor cells, which analysis was carried out for markers for JG (renin and GJA4) and mesangial cells (EBF1, GJA5, ITGA8, and GATA3). * indicates p<0.05; ** indicates p<0.01; and NS indicates “no significant difference” (Student's t-test).
FIG. 14 is a diagram illustrating results of qRT-PCR analysis of cells that were subjected to treatment with VEGF (100 ng/mL) or axitinib (3 μM) and also to treatment under hypoxic conditions (CFR+B7+SB in 5% O2) or normal conditions (CFR+B7+SB minus FG-4592 in 20% O2) on Days 11 to 15, that is, after obtaining renal interstitial progenitor cells, which analysis was carried out for markers for JG (renin and GJA4), mesangial cells (EBF1, GJA5, ITGA8, and GATA3), and VEGFA.
as §3

[4] = combination of CHIR99021 and SB431542, absence of SAG, 5% O2, FG-4592 and RA present, FIG. 9
[5] = BMP (10 or 100 ng/mL) added to CFR medium in the presence of SB431542 (1 μM), FIG. 11

Molecule: CS(=O)(=O)c1ccc(C(=O)Nc2ccc(Cl)c(-c3ccccn3)c2)c(Cl)c1 [vismodegib]
- effect on the SAG-induced EPO up-regulation [1]: reduced the effect of SAG

Molecule: Cc1c[nH]c(-c2cnc(NCCNc3ccc(C#N)cn3)nc2-c2ccc(Cl)cc2Cl)n1 [CHIR99021]
- induction of FOXD1-positive cells [2]: could be induced
- expression of renin [3, 4]: increase the expression of renin

Molecule: VEGF
- expression of markers for juxtaglomerular (JG) cells and mesangial cells ([3]; VEGF 100 ng/mL added to CFR+B7+SB, Days 11 to 15, FIG. 14): increases

Molecule: Cc1c(C(=O)Nc2ccc(N3C[C@@H](C)O[C@@H](C)C3)nc2)cccc1-c1ccc(OC(F)(F)F)cc1 [sonidegib]
- effect on the SAG-induced EPO up-regulation [1]: reduced the effect of SAG

Molecule: Cc1cccc(-c2nn(C(=S)Nc3ccccc3)cc2-c2ccnc3ccccc23)n1 [A83-01]
- EPO expression compared to the combination of SB431542 and SAG [1]: higher EPO expression

Molecule: CN(C)c1ccccc1CN1CCCN(Cc2ccccc2N(C)C)C1c1ccncc1 [GANT61]
- effect on the SAG-induced EPO up-regulation [1]: did not reduce the effect of SAG

Molecule: Cc1nn(-c2ccccc2)c(C)c1/C=N/N1CCN(Cc2ccccc2)CC1 [SANT-1]
- effect on the SAG-induced EPO up-regulation [1]: reduced the effect of SAG

Molecule: CNC1CCC(N(Cc2cccc(-c3ccncc3)c2)C(=O)c2sc3ccccc3c2Cl)CC1 (stereo not shown) [SAG]
- induction efficiency for FOXD1-positive cells ([2]; SAG 500 nM added on Days 6 to 8 to CHIR99021+SB431542+RA, FIG. 5): further increased
- induction efficiency for OSR1-positive FOXD1-positive cells [2]: increases
- EPO expression [1]: up-regulation of EPO
- EPO expression compared to the combination of SB431542 and SAG [1]: higher EPO expression
- expression of EPO [1]: increase the expression of EPO

Molecule: c1ccc2c(Oc3nc(Nc4ccc(N5CCOCC5)cc4)c4ncn(C5CCCCC5)c4n3)cccc2c1 [purmophamine, 9-cyclohexyl-N-[4-(4-morpholinyl)phenyl]-2-(1-naphthalenyloxy)-9H-purine-6-amine]
- EPO expression [1]: up-regulation of EPO

Molecule: IL-1β: interleukin-1β, preferably human IL-1β protein
- induction efficiency for OSR1-positive FOXD1-positive cells [2]: increases

Molecule: NC(=O)c1ccc(-c2nc(-c3ccc4c(c3)OCO4)c(-c3ccccn3)[nH]2)cc1 [SB431542]
- induction of FOXD1-positive cells [2]: could be induced
- expression of renin [3, 4]: increase the expression of renin
- expression of EPO [1]: increase the expression of EPO

B1: BMP5: bone morphogenetic protein 5 (protein, UniProt P22003 317-454, looked up)
Bone morphogenetic protein 5: AANKRKNQNRNKSSSHQDSSRMSSVGDYNTSEQKQACKKHELYVSFRDLGWQDWIIAPEGYAAFYCDGECSFPLNAHMNATNHAIVQTLVHLMFPDHVPKPCCAPTKLNAISVLYFDDSSNVILKKYRNMVVRSCGCH
- expression of renin [3, 5]: high expression of renin

B2: BMP4: bone morphogenetic protein 4 (protein, UniProt P12644 293-408, looked up)
Bone morphogenetic protein 4: SPKHHSQRARKKNKNCRRHSLYVDFSDVGWNDWIVAPPGYQAFYCHGDCPFPLADHLNSTNHAIVQTLVNSVNSSIPKACCVPTELSAISMLYLDEYDKVVLKNYQEMVVEGCGCR
- expression of renin [3, 5]: high expression of renin

B3: BMP7: bone morphogenetic protein 7 (protein, UniProt P18075 293-431, looked up)
Bone morphogenetic protein 7: STGSKQRSQNRSKTPKNQEALRMANVAENSSSDQRQACKKHELYVSFRDLGWQDWIIAPEGYAAYYCEGECAFPLNSYMNATNHAIVQTLVHFINPETVPKPCCAPTQLNAISVLYFDDSSNVILKKYRNMVVRACGCH
- expression of renin [3, 5]: high expression of renin
- expression of renin ([3]; added to CFR medium (CHIR99021, FG-4592, RA), absence of SAG, FIG. 10): positively affected
